The results in this text go back to US11878975B2, “Substituted indole compounds useful as TLR inhibitors” (BRISTOL-MYERS SQUIBB COMPANY, priority 2017, dated 2024).

Common to all, as to type: cell-based
Assay [1] concerns the target T1, human TLR7 (Homo sapiens, UniProt Q9NYK1).
T1 construct: host or cells: HEK-Blue cells
T1 sequence (Q9NYK1 27-1049): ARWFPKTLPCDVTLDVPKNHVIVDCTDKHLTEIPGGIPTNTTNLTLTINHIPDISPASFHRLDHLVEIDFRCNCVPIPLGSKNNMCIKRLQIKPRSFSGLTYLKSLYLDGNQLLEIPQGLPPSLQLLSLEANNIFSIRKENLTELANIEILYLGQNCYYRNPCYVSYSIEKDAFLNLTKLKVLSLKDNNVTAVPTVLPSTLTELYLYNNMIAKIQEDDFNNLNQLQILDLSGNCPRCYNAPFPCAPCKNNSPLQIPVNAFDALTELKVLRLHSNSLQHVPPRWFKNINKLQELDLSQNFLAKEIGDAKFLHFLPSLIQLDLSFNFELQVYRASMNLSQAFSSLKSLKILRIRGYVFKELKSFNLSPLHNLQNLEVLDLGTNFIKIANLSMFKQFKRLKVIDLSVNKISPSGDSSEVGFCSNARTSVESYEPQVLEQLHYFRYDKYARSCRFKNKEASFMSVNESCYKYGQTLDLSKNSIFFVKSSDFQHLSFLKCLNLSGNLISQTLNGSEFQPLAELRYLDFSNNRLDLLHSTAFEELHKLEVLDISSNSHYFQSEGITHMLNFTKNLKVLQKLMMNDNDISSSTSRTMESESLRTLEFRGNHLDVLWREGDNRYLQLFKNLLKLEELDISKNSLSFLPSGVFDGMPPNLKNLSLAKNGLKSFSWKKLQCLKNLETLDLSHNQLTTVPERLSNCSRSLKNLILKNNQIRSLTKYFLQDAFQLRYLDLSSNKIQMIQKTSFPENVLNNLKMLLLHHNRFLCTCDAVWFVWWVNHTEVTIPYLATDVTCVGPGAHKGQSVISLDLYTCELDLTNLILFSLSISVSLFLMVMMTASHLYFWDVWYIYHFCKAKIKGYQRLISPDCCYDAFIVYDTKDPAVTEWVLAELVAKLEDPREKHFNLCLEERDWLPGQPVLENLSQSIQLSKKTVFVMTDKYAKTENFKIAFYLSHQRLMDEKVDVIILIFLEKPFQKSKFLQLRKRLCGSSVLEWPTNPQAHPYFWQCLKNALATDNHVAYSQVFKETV
In words: TLR7 inhibition reporter assay (HEK-Blue cells, SEAP reporter, gardiquimod stimulation). To be noted: HEK-Blue cells overexpressing human TLR7, SEAP reporter, gardiquimod 7.5 μM. Put shortly:
(§1)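 SEAP readout after 22 h agonist exposure at 37 °C; final agonist levels were 7.5 μM gardiquimod (TLR7), 15.9 μM R848 (TLR8) and 5 nM ODN2006 (TLR9). Inhibitors, spanning 0.05 nM to 50 μM final, were applied 30 min beforehand.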
Background: Reporter assays use an easily measured gene product as a stand-in for the process of interest.

In assay [2] the target is T2, human TLR8 (Homo sapiens, UniProt Q9NR97).
T2 construct: host or cells: HEK-Blue cells
T2 sequence (Q9NR97 27-1041): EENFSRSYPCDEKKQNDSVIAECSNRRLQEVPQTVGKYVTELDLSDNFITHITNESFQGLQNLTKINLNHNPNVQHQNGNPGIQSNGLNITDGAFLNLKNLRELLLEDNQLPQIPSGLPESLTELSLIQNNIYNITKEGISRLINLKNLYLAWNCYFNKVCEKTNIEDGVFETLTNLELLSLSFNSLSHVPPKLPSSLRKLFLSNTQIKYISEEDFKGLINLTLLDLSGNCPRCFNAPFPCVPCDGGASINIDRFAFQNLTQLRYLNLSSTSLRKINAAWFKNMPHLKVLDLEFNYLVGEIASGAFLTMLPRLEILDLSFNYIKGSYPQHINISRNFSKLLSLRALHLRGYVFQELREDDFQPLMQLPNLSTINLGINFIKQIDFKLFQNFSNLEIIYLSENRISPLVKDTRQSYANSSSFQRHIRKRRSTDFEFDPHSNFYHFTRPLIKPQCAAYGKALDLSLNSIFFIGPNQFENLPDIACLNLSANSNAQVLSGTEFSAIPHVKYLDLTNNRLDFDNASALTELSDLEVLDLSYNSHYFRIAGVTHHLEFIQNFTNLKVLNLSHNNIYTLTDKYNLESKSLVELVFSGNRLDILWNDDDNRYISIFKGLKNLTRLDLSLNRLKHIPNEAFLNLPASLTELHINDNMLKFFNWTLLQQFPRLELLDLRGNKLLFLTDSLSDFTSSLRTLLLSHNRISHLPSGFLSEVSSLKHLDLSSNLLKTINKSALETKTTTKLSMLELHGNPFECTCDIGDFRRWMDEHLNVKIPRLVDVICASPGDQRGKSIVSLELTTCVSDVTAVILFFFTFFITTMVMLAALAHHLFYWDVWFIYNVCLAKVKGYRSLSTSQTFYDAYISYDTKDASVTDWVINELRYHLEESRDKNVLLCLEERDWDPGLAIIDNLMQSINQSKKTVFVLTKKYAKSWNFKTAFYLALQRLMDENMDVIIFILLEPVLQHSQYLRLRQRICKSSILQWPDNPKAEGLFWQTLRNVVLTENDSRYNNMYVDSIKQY
Nature of the assay: TLR8 inhibition reporter assay (HEK-Blue cells, SEAP reporter, R848 stimulation). To be noted: HEK-Blue cells overexpressing human TLR8, SEAP reporter, R848 15.9 μM. Put shortly: as §1

The target of assay [3] is T3, human TLR9 (Homo sapiens, UniProt Q9NR96).
T3 construct: host or cells: HEK-Blue cells
T3 sequence (Q9NR96 26-1032): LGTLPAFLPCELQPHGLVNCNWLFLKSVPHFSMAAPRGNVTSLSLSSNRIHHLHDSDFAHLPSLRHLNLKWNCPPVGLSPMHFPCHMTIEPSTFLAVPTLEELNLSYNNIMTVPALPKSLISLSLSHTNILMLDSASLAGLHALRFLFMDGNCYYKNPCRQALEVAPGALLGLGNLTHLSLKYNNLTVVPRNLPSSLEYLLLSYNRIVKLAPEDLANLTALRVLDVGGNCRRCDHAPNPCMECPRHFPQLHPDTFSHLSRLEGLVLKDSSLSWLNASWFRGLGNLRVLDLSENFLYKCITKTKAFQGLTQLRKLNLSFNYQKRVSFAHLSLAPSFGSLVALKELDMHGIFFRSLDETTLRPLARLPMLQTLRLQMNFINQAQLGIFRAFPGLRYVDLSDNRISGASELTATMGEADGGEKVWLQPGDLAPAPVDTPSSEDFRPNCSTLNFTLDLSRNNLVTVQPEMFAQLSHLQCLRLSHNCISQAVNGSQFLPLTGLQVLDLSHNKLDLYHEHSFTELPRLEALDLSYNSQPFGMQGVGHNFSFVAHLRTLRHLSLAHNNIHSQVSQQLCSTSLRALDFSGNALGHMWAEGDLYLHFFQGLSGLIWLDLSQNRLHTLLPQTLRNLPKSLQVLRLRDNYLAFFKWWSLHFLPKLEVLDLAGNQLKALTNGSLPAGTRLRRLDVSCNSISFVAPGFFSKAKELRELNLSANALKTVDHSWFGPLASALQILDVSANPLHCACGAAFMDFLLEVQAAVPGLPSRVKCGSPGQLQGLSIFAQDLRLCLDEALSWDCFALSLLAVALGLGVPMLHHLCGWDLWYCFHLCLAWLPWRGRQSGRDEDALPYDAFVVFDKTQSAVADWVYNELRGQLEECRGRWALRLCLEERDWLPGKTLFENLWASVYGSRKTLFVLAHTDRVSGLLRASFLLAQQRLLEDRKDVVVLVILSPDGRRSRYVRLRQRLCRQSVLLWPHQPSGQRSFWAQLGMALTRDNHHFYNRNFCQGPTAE
Nature of the assay: TLR9 inhibition reporter assay (HEK-Blue cells, SEAP reporter, ODN2006 stimulation). To be noted: HEK-Blue cells overexpressing human TLR9, SEAP reporter, ODN2006 5 nM. Put shortly: as §1

pIC50: −log10 of the molar value.

Regarding `Cc1cc(-c2[nH]c3ccc(C4CN(CC(C)(C)O)CCO4)cc3c2C(C)C)cc(C)n1` (stereo not drawn) [Example 358], the pIC50 in assay [1] was 7.04; in assay [2], 8.72; in assay [3], 5.32.

Take `CCN(C)CC(=O)N1CCOC(c2ccc3[nH]c(-c4cc(OC)c5ncnn5c4)c(C(C)C)c3c2)C1` (stereo not drawn) [Example 359, 2-(ethyl(methyl)amino)-1-(2-(3-isopropyl-2-(8-methoxy-[1,2,4]triazolo[1,5-a]pyridin-6-yl)-1H-indol-5-yl)morpholino)ethanone]: the pIC50 was 9.25 in assay [1], 8.33 in assay [2] and 5.44 in assay [3].

On to `COc1cc(-c2[nH]c3ccc(C4CN(C(=O)CN5CCS(=O)(=O)CC5)CCO4)cc3c2C(C)C)cn2ncnc12` (stereo not drawn) [Example 360], for which the pIC50 in assay [1] was 7.96; in assay [2], 7.17; in assay [3], below 4.30.

In the case of `COc1cc(-c2[nH]c3ccc(C4CN(C(=O)CNC5(C)COC5)CCO4)cc3c2C(C)C)cn2ncnc12` (stereo not drawn) [Example 361], the values for the negative logarithm of the IC50 (pIC50) in assay [1], in assay [2] and in assay [3] were 9.04, 8.60 and 5.27, respectively.

Consider `Cc1cc(-c2[nH]c3ccc(C4CN5CCC4CC5)cc3c2C(C)C)cn2ncnc12` (stereo not drawn) [Example 364], for which the pIC50 in assay [1] was 9.19; in assay [2], 8.42; in assay [3] it was 5.98.

Consider `Cc1cc(-c2[nH]c3ccc(C4CN5CCC4CC5)cc3c2C(C)C)cn2ncnc12` (stereo not drawn) [Example 365], for which the figures for the negative-log IC50 (pIC50) in assay [1], in assay [2] and in assay [3] were 9.66, 8.80 and 6.13, respectively.

Take `Cc1cc(-c2[nH]c3ccc(C4CCC5(CC4)NC(=O)NC5=O)cc3c2C(C)C)cc(C)n1` (stereo not drawn) [Example 366, 8-(2-(2,6-dimethylpyridin-4-yl)-3-isopropyl-1H-indol-5-yl)-1,3-diazaspiro[4.5]decane-2,4-dione]: the pIC50 in assay [1] is 8.22; in assay [2], 6.74; in assay [3] it was 4.66.

For the compound `COc1cc(-c2[nH]c3ccc(C4CNC(C)(C)CO4)cc3c2C(C)C)cn2ncnc12` (stereo not drawn) [Example 368], the pIC50 in assay [1] is 9.35; in assay [2] it was 8.80; in assay [3] it was 5.61.

Turning to `COc1cc(-c2[nH]c3ccc(C4CNC(C)(C)CO4)cc3c2C(C)C)cn2ncnc12` (stereo not drawn) [Example 369], the values for the pIC50 in assay [1], in assay [2] and in assay [3] were 9.30, 9.32 and 5.58, respectively.

As for `Cc1c(-c2[nH]c3ccc(C4CNC(C)(C)CO4)cc3c2C(C)C)cn2ncnc2c1C` (stereo not drawn) [Example 370], the negative-log IC50 (pIC50) is 8.70 in assay [1], 9.46 in assay [2] and 4.83 in assay [3].

With `Cc1c(-c2[nH]c3ccc(C4CNC(C)(C)CO4)cc3c2C(C)C)cn2ncnc2c1C` (stereo not drawn) [Example 371], the pIC50 in assay [1] is 9.04; in assay [2], 8.89; in assay [3], 4.81.

With `COc1cc(-c2[nH]c3ccc(C4CN(C(=O)CN(C)C)C(C)(C)CO4)cc3c2C(C)C)cn2ncnc12` (stereo not drawn) [Example 374], the figures for the negative logarithm of the IC50 (pIC50) in assay [1], in assay [2] and in assay [3] were 7.70, 6.96 and 5.23, respectively.

Consider `COc1cc(-c2[nH]c3ccc(C4CN(C)C(C)(C)CO4)cc3c2C(C)C)cn2ncnc12` (stereo not drawn) [Example 377], for which the negative-log IC50 (pIC50) is 8.70 in assay [1], 8.28 in assay [2] and 5.33 in assay [3].

In the case of `COc1cc(-c2[nH]c3ccc(C4CN(C5COC5)C(C)(C)CO4)cc3c2C(C)C)cn2ncnc12` (stereo not drawn) [Example 378], the results for the pIC50 in assay [1], in assay [2] and in assay [3] were 7.30, 6.75 and below 4.30, respectively.

As to `COCCN1CC(c2ccc3[nH]c(-c4cc(C)c5ncnn5c4)c(C(C)C)c3c2)OCC1(C)C` (stereo not drawn) [Example 382], the negative logarithm of the IC50 (pIC50) was 7.82 in assay [1], 8.47 in assay [2] and 5.14 in assay [3].

`COCCN1CC(c2ccc3[nH]c(-c4cc(C)c5ncnn5c4)c(C(C)C)c3c2)OCC1(C)C` (stereo not drawn) [Example 383]: the pIC50 is 8.05 in assay [1], 7.39 in assay [2] and 4.86 in assay [3].

On to `Cc1cc(-c2[nH]c3ccc(C4CN(CCS(C)(=O)=O)C(C)(C)CO4)cc3c2C(C)C)cn2ncnc12` (stereo not drawn) [Example 384], for which the values for the negative-log IC50 (pIC50) in assay [1], in assay [2] and in assay [3] were 7.89, 7.96 and 4.52, respectively.

Take `Cc1cc(-c2[nH]c3ccc(C4CN(CC(C)(C)O)C(C)(C)CO4)cc3c2C(C)C)cn2ncnc12` (stereo not drawn) [Example 385]: the pIC50 in assay [1] is 7.85; in assay [2] it was 7.32; in assay [3], 4.69.

Take `Cc1c(-c2[nH]c3ccc(C4CN(CC(=O)N(C)C)C(C)(C)CO4)cc3c2C(C)C)cn2ncnc2c1C` (stereo not drawn) [Example 386]: the figures for the pIC50 in assay [1], in assay [2] and in assay [3] were 7.47, 7.31 and below 4.30, respectively.

For `Cc1c(-c2[nH]c3ccc(C4CN(CC(=O)N(C)C)C(C)(C)CO4)cc3c2C(C)C)cn2ncnc2c1C` (stereo not drawn) [Example 387], the pIC50 in assay [1] was 7.07; in assay [2], 7.36; in assay [3] it was below 4.30.

As a reminder, the pIC50 is −log10 of the IC50, conventionally taken in molar units. A low value points to a large IC50.
